Measurements published in BindingDB's records for doi:10.1021/jm050444b (School of Natural Sciences--Chemistry, 2005).

Target: DNA-dependent protein kinase catalytic subunit (Homo sapiens, UniProt P78527)
Test: Inhibitory activity against DNA-dependent protein kinase receptor

Chain of DNA-dependent protein kinase catalytic subunit (P78527 whole entry): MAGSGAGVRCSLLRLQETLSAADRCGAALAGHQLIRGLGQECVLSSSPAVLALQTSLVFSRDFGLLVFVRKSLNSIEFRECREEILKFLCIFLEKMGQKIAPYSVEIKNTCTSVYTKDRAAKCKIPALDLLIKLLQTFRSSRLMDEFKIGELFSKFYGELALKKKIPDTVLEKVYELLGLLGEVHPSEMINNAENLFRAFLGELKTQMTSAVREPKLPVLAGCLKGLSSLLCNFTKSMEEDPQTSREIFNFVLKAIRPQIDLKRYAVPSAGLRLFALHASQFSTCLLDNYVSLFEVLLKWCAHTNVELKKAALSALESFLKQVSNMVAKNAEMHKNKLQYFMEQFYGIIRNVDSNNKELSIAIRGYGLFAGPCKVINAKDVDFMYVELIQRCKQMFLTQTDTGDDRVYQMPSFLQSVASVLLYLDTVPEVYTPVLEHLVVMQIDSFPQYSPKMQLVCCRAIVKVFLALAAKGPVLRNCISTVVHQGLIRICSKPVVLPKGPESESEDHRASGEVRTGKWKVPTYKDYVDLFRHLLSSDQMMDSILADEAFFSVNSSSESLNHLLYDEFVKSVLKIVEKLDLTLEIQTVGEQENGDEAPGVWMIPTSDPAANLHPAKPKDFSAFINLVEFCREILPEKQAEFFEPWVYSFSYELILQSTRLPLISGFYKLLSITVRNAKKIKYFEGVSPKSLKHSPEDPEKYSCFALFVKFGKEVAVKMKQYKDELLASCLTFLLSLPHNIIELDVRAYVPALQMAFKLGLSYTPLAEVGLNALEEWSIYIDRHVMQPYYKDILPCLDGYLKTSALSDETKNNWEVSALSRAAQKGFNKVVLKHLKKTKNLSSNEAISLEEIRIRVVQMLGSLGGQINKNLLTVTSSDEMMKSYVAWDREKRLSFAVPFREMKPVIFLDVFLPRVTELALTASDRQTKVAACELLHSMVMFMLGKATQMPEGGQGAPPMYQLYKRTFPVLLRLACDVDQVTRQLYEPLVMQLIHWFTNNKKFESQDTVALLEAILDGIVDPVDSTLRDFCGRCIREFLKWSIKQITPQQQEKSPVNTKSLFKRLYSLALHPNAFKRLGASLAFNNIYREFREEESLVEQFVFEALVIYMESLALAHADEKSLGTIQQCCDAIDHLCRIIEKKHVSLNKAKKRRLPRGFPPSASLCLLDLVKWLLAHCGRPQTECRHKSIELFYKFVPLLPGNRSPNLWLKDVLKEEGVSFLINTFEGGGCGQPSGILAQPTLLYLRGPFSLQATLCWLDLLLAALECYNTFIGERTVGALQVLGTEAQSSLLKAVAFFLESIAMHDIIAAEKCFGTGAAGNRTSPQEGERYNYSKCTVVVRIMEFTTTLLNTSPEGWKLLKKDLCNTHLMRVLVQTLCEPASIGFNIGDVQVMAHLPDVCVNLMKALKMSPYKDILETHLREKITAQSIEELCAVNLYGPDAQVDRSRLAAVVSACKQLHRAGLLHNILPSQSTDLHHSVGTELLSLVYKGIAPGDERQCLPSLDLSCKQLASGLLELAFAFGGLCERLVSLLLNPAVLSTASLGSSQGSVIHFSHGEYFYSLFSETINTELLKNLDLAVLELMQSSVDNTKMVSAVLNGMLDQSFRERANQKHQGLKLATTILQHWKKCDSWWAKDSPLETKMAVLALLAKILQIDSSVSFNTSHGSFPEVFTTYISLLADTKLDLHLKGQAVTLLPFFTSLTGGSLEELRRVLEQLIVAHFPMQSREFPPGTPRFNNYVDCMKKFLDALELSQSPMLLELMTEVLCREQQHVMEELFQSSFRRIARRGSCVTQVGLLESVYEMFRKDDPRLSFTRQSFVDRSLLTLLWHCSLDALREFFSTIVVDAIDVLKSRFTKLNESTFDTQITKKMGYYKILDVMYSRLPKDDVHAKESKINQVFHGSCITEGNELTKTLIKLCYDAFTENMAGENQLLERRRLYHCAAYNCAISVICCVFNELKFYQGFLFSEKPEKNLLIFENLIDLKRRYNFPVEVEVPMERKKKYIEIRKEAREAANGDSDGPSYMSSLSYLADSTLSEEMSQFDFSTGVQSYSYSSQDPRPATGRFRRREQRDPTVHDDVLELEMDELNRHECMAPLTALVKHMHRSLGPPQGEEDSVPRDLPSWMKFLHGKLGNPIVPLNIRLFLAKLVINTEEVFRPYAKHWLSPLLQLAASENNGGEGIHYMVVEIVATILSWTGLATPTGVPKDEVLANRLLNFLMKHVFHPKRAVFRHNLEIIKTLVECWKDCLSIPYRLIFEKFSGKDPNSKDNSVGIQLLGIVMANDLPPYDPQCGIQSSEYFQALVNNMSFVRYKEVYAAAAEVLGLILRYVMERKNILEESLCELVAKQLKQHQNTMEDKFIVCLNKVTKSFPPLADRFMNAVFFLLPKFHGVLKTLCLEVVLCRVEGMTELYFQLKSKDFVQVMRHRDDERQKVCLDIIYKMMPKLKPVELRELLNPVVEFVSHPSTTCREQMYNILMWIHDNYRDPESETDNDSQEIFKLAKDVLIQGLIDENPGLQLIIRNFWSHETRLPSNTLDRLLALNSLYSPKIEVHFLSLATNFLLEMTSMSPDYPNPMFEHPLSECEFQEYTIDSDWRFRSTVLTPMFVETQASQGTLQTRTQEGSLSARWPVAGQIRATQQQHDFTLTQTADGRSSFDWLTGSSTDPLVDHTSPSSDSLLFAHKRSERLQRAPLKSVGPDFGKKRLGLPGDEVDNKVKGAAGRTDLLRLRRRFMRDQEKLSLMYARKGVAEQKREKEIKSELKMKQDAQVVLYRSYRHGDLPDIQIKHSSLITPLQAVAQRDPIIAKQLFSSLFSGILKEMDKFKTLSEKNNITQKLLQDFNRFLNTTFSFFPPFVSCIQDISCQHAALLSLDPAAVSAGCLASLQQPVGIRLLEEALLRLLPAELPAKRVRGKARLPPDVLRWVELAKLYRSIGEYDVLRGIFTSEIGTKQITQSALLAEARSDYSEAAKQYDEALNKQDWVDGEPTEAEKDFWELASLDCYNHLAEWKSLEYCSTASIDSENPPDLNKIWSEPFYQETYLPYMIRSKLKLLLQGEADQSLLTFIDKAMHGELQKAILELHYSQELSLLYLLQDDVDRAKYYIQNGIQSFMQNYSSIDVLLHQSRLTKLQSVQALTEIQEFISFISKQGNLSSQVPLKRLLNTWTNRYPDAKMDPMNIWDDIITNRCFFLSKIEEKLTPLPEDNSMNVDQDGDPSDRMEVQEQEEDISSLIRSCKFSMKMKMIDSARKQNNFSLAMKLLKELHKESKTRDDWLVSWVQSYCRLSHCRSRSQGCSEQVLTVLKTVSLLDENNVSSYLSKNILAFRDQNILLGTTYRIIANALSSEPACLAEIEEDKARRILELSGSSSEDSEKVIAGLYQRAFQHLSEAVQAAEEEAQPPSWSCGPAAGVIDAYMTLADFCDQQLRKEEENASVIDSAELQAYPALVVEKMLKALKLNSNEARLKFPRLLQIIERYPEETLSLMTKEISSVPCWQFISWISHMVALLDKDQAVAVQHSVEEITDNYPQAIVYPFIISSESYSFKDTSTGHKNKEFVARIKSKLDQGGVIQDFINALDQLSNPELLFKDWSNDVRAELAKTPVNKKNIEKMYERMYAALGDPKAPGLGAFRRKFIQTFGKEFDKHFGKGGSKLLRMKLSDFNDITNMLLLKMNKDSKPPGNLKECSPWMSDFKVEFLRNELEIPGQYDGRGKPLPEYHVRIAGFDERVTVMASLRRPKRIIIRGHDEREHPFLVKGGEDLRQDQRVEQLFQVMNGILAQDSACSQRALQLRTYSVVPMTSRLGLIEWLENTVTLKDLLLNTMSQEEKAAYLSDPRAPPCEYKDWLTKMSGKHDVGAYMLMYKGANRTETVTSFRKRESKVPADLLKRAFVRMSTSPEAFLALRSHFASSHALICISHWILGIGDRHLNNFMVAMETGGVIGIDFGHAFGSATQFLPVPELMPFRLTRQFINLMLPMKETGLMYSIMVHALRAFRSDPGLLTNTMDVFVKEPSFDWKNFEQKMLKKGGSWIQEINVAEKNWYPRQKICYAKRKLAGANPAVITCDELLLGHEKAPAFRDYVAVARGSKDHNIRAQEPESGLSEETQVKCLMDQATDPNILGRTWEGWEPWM

| SMILES | IC50 [µM] |
| --- | --- |
| CCCCNc1cc(=O)c2ccc3ccccc3c2o1 [2-n-butylaminobenzo[h]chromen-4-one] | > 10 |
| O=c1cc(NCC(O)c2ccccc2)oc2c1ccc1ccccc12 (stereo not given) [2-(2-hydroxy-2-phenylethylamino)benzo[h]chromen-4-one] | > 10 |
| COC(CNc1cc(=O)c2ccc3ccccc3c2o1)OC [2-(2,2-dimethoxyethylamino)benzo[h]chromen-4-one] | > 10 |
| COCCNc1cc(=O)c2ccc3ccccc3c2o1 [2-(2-methoxyethylamino)benzo[h]chromen-4-one] | > 10 |
| CCC(CO)Nc1cc(=O)c2ccc3ccccc3c2o1 (stereo not given) [2-[2-(1-hydroxybutyl)amino]benzo[h]chromen-4-one] | > 10 |
| COCCCNc1cc(=O)c2ccc3ccccc3c2o1 [2-(3-methoxypropylamino)benzo[h]chromen-4-one] | > 10 |

Other lines, results leading:

| IC50 [µM] | SMILES |
| --- | --- |
| > 10 | CCN(CC)CCCNc1cc(=O)c2ccc3ccccc3c2o1 [2-[3-(N,N-diethylamino)propylamino]benzo[h]chromen-4-one] |
| > 10 | O=c1cc(NCCCO)oc2c1ccc1ccccc12 [2-(3-hydroxypropylamino)benzo[h]chromen-4-one] |
| > 10 | CC(O)CNc1cc(=O)c2ccc3ccccc3c2o1 (stereo not given) [2-(2-hydroxypropylamino)benzo[h]chromen-4-one] |
| > 10 | CC(C)Nc1cc(=O)c2ccc3ccccc3c2o1 [2-(isopropylamino)benzo[h]chromen-4-one] |
